In patent publication US12209087B2, “AKT1 modulators” (Alterome Therapeutics, Inc., priority 2022, dated 2025) one finds IC50 data, which are given here for 27 compounds.

The target of one assay is T1, full length AKT E17K (Homo sapiens, UniProt P31749, E17K).
T1 construct: host or cells: HEK-293 (ATCC CRL-1573)
T1 sequence (P31749 whole entry E17K): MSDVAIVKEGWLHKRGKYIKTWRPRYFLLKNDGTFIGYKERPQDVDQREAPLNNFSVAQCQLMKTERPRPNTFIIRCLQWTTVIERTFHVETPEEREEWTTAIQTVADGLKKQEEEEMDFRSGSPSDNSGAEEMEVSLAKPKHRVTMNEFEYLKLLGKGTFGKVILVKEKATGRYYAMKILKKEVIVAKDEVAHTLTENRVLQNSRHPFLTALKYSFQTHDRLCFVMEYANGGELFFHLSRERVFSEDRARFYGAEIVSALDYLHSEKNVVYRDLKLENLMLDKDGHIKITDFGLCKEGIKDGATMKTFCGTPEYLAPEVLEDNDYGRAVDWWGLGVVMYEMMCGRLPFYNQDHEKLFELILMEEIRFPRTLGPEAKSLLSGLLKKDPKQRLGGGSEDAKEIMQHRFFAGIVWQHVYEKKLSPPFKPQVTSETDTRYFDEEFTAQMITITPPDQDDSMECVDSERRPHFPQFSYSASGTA
Nature of the assay: NanoBRET Target Engagement (TE) Assay. The class given is cell-based. The conditions noted are these: competitive displacement of tracer in cells, read-out: AKT1 E17K IC50. The essentials:
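Compound and tracer incubated 2 h before luminescence at donor 450 nm and acceptor 600 nm, with extracellular signal inhibited. EC50 by sigmoidal variable-slope regression.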
Take `[2H]C([2H])(F)Oc1ccc(-c2ccc3nc(-c4nccnc4N)n(-c4ccc(CN5CCC(Nc6ccnc(C#N)n6)CC5)cc4)c3n2)cn1` [Example 640, 4-((1-(4-(2-(3-Aminopyrazin-2-yl)-5-(6-(fluoromethoxy-d2)pyridin-3-yl)-3H-imidazo[4,5-b]pyridin-3-yl)benzyl)piperidin-4-yl)amino)pyrimidine-2-carbonitrile]: the half-inhibitory concentration (IC50) is less than 15 nM.

Take `N#Cc1ccc(-c2ccc3nc(-c4cccnc4N)n(-c4ccc(CN5CCN(c6nccc(C#N)n6)CC5)cc4)c3n2)cc1` [Example 319, 2-(4-(4-(2-(2-Aminopyridin-3-yl)-5-(4-cyanophenyl)-3H-imidazo[4,5-b]pyridin-3-yl)benzyl)piperazin-1-yl)pyrimidine-4-carbonitrile]: the IC50 was in the range of 60 to 600 nM.

For the compound `COc1ccc(-c2ccc3nc(-c4cccnc4N)n(-c4ccc(CN5CCC(Nc6ccnc(C#N)n6)CC5)cc4)c3n2)cc1` [Example 421, 4-((1-(4-(2-(2-Aminopyridin-3-yl)-5-(4-methoxyphenyl)-3H-imidazo[4,5-b]pyridin-3-yl)benzyl)piperidin-4-yl)amino)pyrimidine-2-carbonitrile], the IC50 was less than 15 nM.

Regarding `N#Cc1nccc(NC2CCN(Cc3ccc(-n4c(-c5cccnc5N)nc5ccc(-c6cnn(C(F)F)n6)nc54)cc3)CC2)n1` [Example 620, 4-((1-(4-(2-(2-Aminopyridin-3-yl)-5-(2-(difluoromethyl)-2H-1,2,3-triazol-4-yl)-3H-imidazo[4,5-b]pyridin-3-yl)benzyl)piperidin-4-yl)amino)pyrimidine-2-carbonitrile], the IC50 was less than 15 nM.

For `N#CCn1ncc(-c2ccc3nc(-c4nccnc4N)n(-c4ccc(CN5CCC(Nc6ccnc(C#N)n6)CC5)cc4)c3n2)n1` [Example 632, 4-((1-(4-(2-(3-Aminopyrazin-2-yl)-5-(2-(cyanomethyl)-2H-1,2,3-triazol-4-yl)-3H-imidazo[4,5-b]pyridin-3-yl)benzyl)piperidin-4-yl)amino)pyrimidine-2-carbonitrile], the IC50 was less than 15 nM.

Consider `N#Cc1nccc(N2CCN(Cc3ccc(-n4c(-c5cccnc5N)nc5ccc(-c6cccnc6)nc54)cc3)CC2)n1` [Example 432], for which the IC50 was less than 15 nM.

In the case of `N#Cc1nccc(NC2CCN(Cc3ccc(-n4c(-c5cccnc5N)nc5ccc(-c6cnoc6)nc54)cc3)CC2)n1` [Example 461, 4-((1-(4-(2-(2-Aminopyridin-3-yl)-5-(isoxazol-4-yl)-3H-imidazo[4,5-b]pyridin-3-yl)benzyl)piperidin-4-yl)amino)pyrimidine-2-carbonitrile], the IC50 is less than 15 nM.

As to `N#Cc1ccc(-c2ccc3nc(-c4cccnc4N)n(-c4ccc(CN5CCC(Nc6ccnc(C#N)n6)CC5)cc4)c3n2)nc1` [Example 418, 4-((1-(4-(2-(2-Aminopyridin-3-yl)-5-(5-cyanopyridin-2-yl)-3H-imidazo[4,5-b]pyridin-3-yl)benzyl)piperidin-4-yl)amino)pyrimidine-2-carbonitrile], the IC50 lay in the range of 15 to 60 nM.

In the case of `N#Cc1cc(NC2CCN(Cc3ccc(-n4c(-c5cccnc5N)nc5ccc(-c6cccc(Cl)c6)nc54)cc3)CC2)ncn1` [Example 373, 6-((1-(4-(2-(2-Aminopyridin-3-yl)-5-(3-chlorophenyl)-3H-imidazo[4,5-b]pyridin-3-yl)benzyl)piperidin-4-yl)amino)pyrimidine-4-carbonitrile], the IC50 was in the range of 15 to 60 nM.

For the compound `Cn1nccc1-c1ccc2nc(-c3cccnc3N)n(-c3ccc(CN4CCC(Nc5ccnc(C#N)n5)CC4)cc3)c2n1` [Example 467, 4-((1-(4-(2-(2-Aminopyridin-3-yl)-5-(1-methyl-1H-pyrazol-5-yl)-3H-imidazo[4,5-b]pyridin-3-yl)benzyl)piperidin-4-yl)amino)pyrimidine-2-carbonitrile], the IC50 is less than 15 nM.

Consider `Cn1cc(-c2ccc3nc(-c4cccnc4N)n(-c4ccc(CN5CCN(c6ccnc(C#N)n6)CC5)cc4)c3n2)ccc1=O` [Example 348, 4-(4-(4-(2-(2-Aminopyridin-3-yl)-5-(1-methyl-6-oxo-1,6-dihydropyridin-3-yl)-3H-imidazo[4,5-b]pyridin-3-yl)benzyl)piperazin-1-yl)pyrimidine-2-carbonitrile], for which the IC50 lay in the range of 60 to 600 nM.

Turning to `N#Cc1nccc(NC2CCN(Cc3ccc(-n4c(-c5cccnc5N)nc5ccc(OCF)nc54)cc3)CC2)n1` [Example 416, 4-((1-(4-(2-(2-Aminopyridin-3-yl)-5-(fluoromethoxy)-3H-imidazo[4,5-b]pyridin-3-yl)benzyl)piperidin-4-yl)amino)pyrimidine-2-carbonitrile], the IC50 was less than 15 nM.

In the case of `[2H]C([2H])([2H])Oc1ccc(-c2ccc3nc(-c4cccnc4N)n(-c4ccc(CN5CCC(Nc6ccnc(C#N)n6)CC5)cc4)c3n2)cn1` [Example 598, 4-((1-(4-(2-(2-aminopyridin-3-yl)-5-(6-(methoxy-d3)pyridin-3-yl)-3H-imidazo[4,5-b]pyridin-3-yl)benzyl)piperidin-4-yl)amino)pyrimidine-2-carbonitrile], the IC50 is less than 15 nM.

Consider `N#Cc1nccc(NC2CCN(Cc3ccc(-n4c(-c5nccnc5N)nc5ccc(-c6ccc(F)cn6)nc54)cc3)CC2)n1` [Example 574, 4-((1-(4-(2-(3-Aminopyrazin-2-yl)-5-(5-fluoropyridin-2-yl)-3H-imidazo[4,5-b]pyridin-3-yl)benzyl)piperidin-4-yl)amino)pyrimidine-2-carbonitrile], for which the IC50 was less than 15 nM.

As to `N#Cc1nccc(N2CCN(Cc3ccc(-n4c(-c5cccnc5N)nc5ccc(-c6ncccc6C#N)nc54)cc3)CC2)n1` [Example 407, 4-(4-(4-(2-(2-Aminopyridin-3-yl)-5-(3-cyanopyridin-2-yl)-3H-imidazo[4,5-b]pyridin-3-yl)benzyl)piperazin-1-yl)pyrimidine-2-carbonitrile], the IC50 is less than 15 nM.

`COc1cc(-c2ccc3nc(-c4cccnc4N)n(-c4ccc(CN5CCC(Nc6ccnc(C#N)n6)CC5)cc4)c3n2)ccc1F` [Example 439, 4-((1-(4-(2-(2-Aminopyridin-3-yl)-5-(4-fluoro-3-methoxyphenyl)-3H-imidazo[4,5-h]pyridin-3-yl)benzyl)piperidin-4-yl)amino)pyrimidine-2-carbonitrile]: the IC50 was less than 15 nM.

The assay is the same for the next values; noted with them: competitive tracer displacement in living cells, read-out: AKT1 E17K IC50.
Regarding `N#Cc1cc(C(=O)N2CCN(Cc3ccc(-n4c(-c5cccnc5N)nc5cccnc54)cc3)CC2)ccn1` [Example 109, 4-(4-(4-(2-(2-Aminopyridin-3-yl)-3H-imidazo[4,5-b]pyridin-3-yl)benzyl)piperazine-1-carbonyl)picolinonitrile], the half-inhibitory concentration (IC50) lay within 600 to 10000 nM.

On to `N#Cc1cnccc1C(=O)NC1CCN(Cc2ccc(-n3c(-c4cccnc4N)nc4ccc(-c5ccccc5)nc43)cc2)CC1` [Example 59, N-(1-(4-(2-(2-Aminopyridin-3-yl)-5-phenyl-3H-imidazo[4,5-b]pyridin-3-yl)benzyl)piperidin-4-yl)-3-cyanoisonicotinamide], for which the IC50 lay in the range of 15 to 60 nM.

Turning to `N#Cc1ccc(N2CCN(Cc3ccc(-n4c(-c5cccnc5N)nc5cccnc54)cc3)CC2)cn1` [Example 14, 5-(4-(4-(2-(2-Aminopyridin-3-yl)-3H-imidazo[4,5-b]pyridin-3-yl)benzyl)piperazin-1-yl)picolinonitrile], the IC50 lay in the range of 600 to 10000 nM.

Turning to `N#Cc1cc(NC2CCN(Cc3ccc(-n4c(-c5cccnc5N)nc5ccc(-c6ccccc6)nc54)cc3)CC2)cnn1` [Example 158, 5-((1-(4-(2-(2-Aminopyridin-3-yl)-5-phenyl-3H-imidazo[4,5-b]pyridin-3-yl)benzyl)piperidin-4-yl)amino)pyridazine-3-carbonitrile], the IC50 lay in the range of 15 to 60 nM.

For the compound `N#Cc1ncnc(N2CC3CCC(C2)N3Cc2ccc(-n3c(-c4cccnc4N)nc4ccc(-c5ccccc5)nc43)cc2)n1` [Example 271, 4-(8-(4-(2-(2-Aminopyridin-3-yl)-5-phenyl-3H-imidazo[4,5-b]pyridin-3-yl)benzyl)-3,8-diazabicyclo[3.2.1]octan-3-yl)-1,3,5-triazine-2-carbonitrile], the IC50 lay in the range of 15 to 60 nM.

Turning to `CC(=O)Nc1cccc(-c2ccc3nc(-c4cccnc4N)n(-c4ccc(CN5CCN(c6ccnc(C#N)c6)CC5)cc4)c3n2)c1` [Example 37, N-(3-(2-(2-Aminopyridin-3-yl)-3-(4-((4-(2-cyanopyridin-4-yl)piperazin-1-yl)methyl)phenyl)-3H-imidazo[4,5-b]pyridin-5-yl)phenyl)acetamide], the IC50 lay in the range of 15 to 60 nM.

`N#Cc1ccnc(C(=O)NCc2ccc(-n3c(-c4cccnc4N)nc4cccnc43)cc2)c1` [Example 147, N-(4-(2-(2-Aminopyridin-3-yl)-3H-imidazo[4,5-b]pyridin-3-yl)benzyl)-4-cyanopicolinamide]: the IC50 lay within 600 to 10000 nM.

For `N#Cc1ncnc(N2CCCC3(CCN(Cc4ccc(-n5c(-c6cccnc6N)nc6ccc(-c7ccccc7)nc65)cc4)C3)C2)n1` (stereo not drawn) [Example 253, 4-(2-(4-(2-(2-Aminopyridin-3-yl)-5-phenyl-3H-imidazo[4,5-b]pyridin-3-yl)benzyl)-2,7-diazaspiro[4.5]decan-7-yl)-1,3,5-triazine-2-carbonitrile], the IC50 was 15 to 60 nM.

With `N#Cc1cc(N2CCN(Cc3ccc(-n4c(-c5cccnc5N)nc5cccnc54)cc3)CC2)ncn1` [Example 21, 6-(4-(4-(2-(2-Aminopyridin-3-yl)-3H-imidazo[4,5-b]pyridin-3-yl)benzyl)piperazin-1-yl)pyrimidine-4-carbonitrile], the IC50 fell in the range of 60 to 600 nM.

Regarding `N#Cc1cc(NC2CCN(Cc3ccc(-n4c(-c5cccnc5N)nc5ccc(C6CC6)nc54)cc3)CC2)ncn1` [Example 291, 6-((1-(4-(2-(2-Aminopyridin-3-yl)-5-cyclopropyl-3H-imidazo[4,5-b]pyridin-3-yl)benzyl)piperidin-4-yl)amino)pyrimidine-4-carbonitrile], the IC50 fell in the range of 15 to 60 nM.

As to `N#Cc1ccnc(NC2CCN(Cc3ccc(-n4c(-c5cccnc5N)nc5ccc(-c6ccccc6)nc54)cc3)CC2)c1` [Example 87, 2-((1-(4-(2-(2-Aminopyridin-3-yl)-5-phenyl-3H-imidazo[4,5-b]pyridin-3-yl)benzyl)piperidin-4-yl)amino)isonicotinonitrile], the IC50 was in the range of 60 to 600 nM.
